Assay type in all cases: in vivo
In one data set the test system is Spodoptera litura. Briefly: Efficacy test against Spodoptera litura (cabbage leaf immersion). As to conditions: 144 h, read-out: mortality of Spodoptera litura. On the procedure: A cabbage leaf was immersed in the diluted solution for 30 seconds. The cabbage leaf was air-dried and then put in a petri dish, followed by leaving five second-instar larvae of Spodoptera litura therein. The petri dish was placed in a thermostatic chamber at a temperature of 25°C and a humidity of 60%. After six days had passed from leaving the larvae, life or death was assessed and the mortality was calculated. The test was repeated twice.

The next data set relates to Mythimna separata. The experiment in a line: Efficacy test against Mythimna separata (treated artificial feed). As to conditions: 1 µl of emulsion (I) (5% by mass active ingredient) mixed with 0.8 g artificial feed; second-instar larvae; 25°C; after five days. As for the experimental part: (§1) 5 parts by mass of a compound of the present invention, 93.6 parts by mass of dimethylformamide, and 1.4 parts by mass of polyoxyethylene alkyl aryl ether were mixed and dissolved to obtain an emulsion (I) containing 5% by mass of the active ingredient.
0.8 g of commercially-available artificial feed (Insect LFS, manufactured by Nosan Corporation) and 1 µl of the emulsion (I) were mixed well, and then 0.2 g of the mixture per treated area was packed into plastic test containers (each having a capacity of 1.4 ml) as test feeds.
Two second-instar larvae of Mythimna separata were left per treated area, and then the test containers were sealed with plastic covers. The test containers were placed in a thermostatic chamber at 25°C, and, after five days had passed therefrom, the mortality and the feed intake were measured. The test was repeated twice.
In addition, the test was carried out under the same conditions as described above, except that the emulsion (II) was used instead of the emulsion (I), and evaluated as a solvent control area.

A further data set deals with Plutella xylostella. Briefly: Efficacy test against Plutella xylostella (cabbage leaf immersion). As to conditions: 72 h. As for the experimental part:
The emulsion (II) was diluted with water at the same dilution ratio as the diluted solution (I), thereby obtaining a diluted solution (II). A cabbage leaf was immersed in each of the diluted solutions for 30 seconds. Each cabbage leaf after immersion was air-dried and then put in a petri dish, followed by leaving five second-instar larvae of Plutella xylostella therein. The petri dishes were placed in a thermostatic chamber at a temperature of 25°C and a humidity of 60%. After three days had passed from leaving the larvae, life or death was assessed and the mortality was calculated. The test was repeated twice.

The subject of another data set is Phyllotreta striolata. The experiment in a line: Efficacy test against Phyllotreta striolata (sprayed bok-choy seedling). As to conditions: 168 h, read-out: mortality against the adults of Phyllotreta striolata. As for the experimental part: as §1
The emulsion (I) was diluted with water such that the concentration of the compound of the present invention became 125 ppm by mass. The diluted solution was sprayed to a bok-choy seedling (at the 7th leafe stage) planted in a 3-sun pot. After air-dried, the bok-choy seedling was placed in a plastic cup, and ten adults of Phyllotreta striolata were left therein. The plastic cup was placed in a thermostatic chamber at a temperature of 25°C and a humidity of 65%. After seven days had passed from leaving the adults, life or death was assessed and the mortality was calculated. The test was repeated twice.

[1] abbreviates: 125 ppm by mass, cabbage leaf immersed 30 seconds, second-instar larvae, 25°C, humidity 60%, after six days.
Setting [2] is: 125 ppm by mass, cabbage leaf immersed 30 seconds, second-instar larvae of Plutella xylostella, 25°C, humidity 60%, after three days, read-out: mortality.
The mark [3] stands for this setting: 125 ppm by mass, sprayed to bok-choy seedling, adults, 25°C, humidity 65%, after seven days.

Like-named read-outs stand apart in the source and are kept apart here. Some results are limits rather than exact numbers.

In general, mortality refers to the percentage killed. In the case of `Cn1c[n+]([N-]C(=O)c2cc(Cl)nc(Oc3ccc(OC(F)(F)F)cc3)c2)cn1` [Compound 2], in the data set on Spodoptera litura (setting [1]), the mortality at 125 ppm is not below 80%. Moreover, the “mortality of Mythimna separata or feed intake relative to the feed intake at the solvent control area” value with Mythimna separata is on record as 100% mortality of Mythimna separata or 10% or less of the feed intake.

As for `O=C([N-][n+]1ccccc1)c1cc(Cl)nc(Oc2ccc(OC(F)(F)C(F)F)cc2)c1` [Compound 4], the mortality at 125 ppm in the data set with Spodoptera litura (setting [1]) and in the data set on Plutella xylostella (setting [2]) was not below 80% in each case. Besides, the “mortality of Mythimna separata or feed intake relative to the feed intake at the solvent control area” value in the data set on Mythimna separata is given as 100% mortality of Mythimna separata or 10% or less of the feed intake.

Regarding `Cc1cc[n+]([N-]C(=O)c2cc(Cl)nc(Oc3ccc(OC(F)(F)C(F)(F)F)cc3)c2)cc1` [Compound 5], the mortality at 125 ppm with Spodoptera litura (setting [1]) and in the data set on Plutella xylostella (setting [2]) was not below 80% in each case.

Consider `COc1cc[n+]([N-]C(=O)c2cc(Cl)nc(Oc3ccc(OC(F)(F)C(F)(F)F)cc3)c2)cc1` [Compound 6], for which the mortality at 125 ppm in the data set with Spodoptera litura (setting [1]) and in the data set on Plutella xylostella (setting [2]) was not below 80% each time.

Consider `Cn1c[n+]([N-]C(=O)c2cc(Cl)nc(Oc3ccc(OC(F)(F)C(F)(F)F)cc3)c2)cn1` [Compound 8], for which the mortality at 125 ppm in the data set on Spodoptera litura (setting [1]) was not below 80%.

Consider `Cn1cc[n+]([N-]C(=O)c2cc(Cl)nc(Oc3ccc(OC(F)(F)C(F)(F)F)cc3)c2)c1` [Compound 9], for which the mortality at 125 ppm with Spodoptera litura (setting [1]) and in the data set on Plutella xylostella (setting [2]) was not below 80% in each case.

Consider `O=C([N-][n+]1cccc(F)c1)c1cc(Cl)nc(Oc2ccc(OC(F)(F)C(F)F)cc2)c1` [Compound 11], for which the mortality at 125 ppm in the data set on Spodoptera litura (setting [1]) and in the data set on Plutella xylostella (setting [2]) was not below 80% in each case.

As to `O=C([N-][n+]1ccccc1)c1cc(Br)nc(Oc2ccc(OC(F)(F)C(F)(F)F)cc2)c1` [Compound 12], the mortality at 125 ppm in the data set on Spodoptera litura (setting [1]) and in the data set with Plutella xylostella (setting [2]) was not below 80% in each case.

On to `O=C([N-][n+]1ccccc1)c1cc(Br)nc(Oc2ccc(OC(F)(F)C(F)F)cc2)c1` [Compound 13], for which the mortality at 125 ppm in the data set on Spodoptera litura (setting [1]) and in the data set on Plutella xylostella (setting [2]) was not below 80% in each case.

For `N#Cc1cc(C(=O)[N-][n+]2ccccc2)cc(Oc2ccc(OC(F)(F)C(F)(F)F)cc2)n1` [Compound 14], the mortality at 125 ppm with Spodoptera litura (setting [1]) and with Plutella xylostella (setting [2]) was not below 80% in each case.

On to `O=C([N-][n+]1ccccc1)c1cc(Cl)nc(Oc2ccc(C3(C(F)(F)F)CC3)cc2)c1` [Compound 15], for which the mortality at 125 ppm with Spodoptera litura (setting [1]) and in the data set with Plutella xylostella (setting [2]) was not below 80% throughout.

As for `O=C([N-][n+]1ccccc1)c1cc(Cl)nc(Oc2ccc(OC(F)(F)C(F)OC(F)(F)F)cc2)c1` (stereo not drawn) [Compound 16], the mortality at 125 ppm in the data set on Spodoptera litura (setting [1]) and with Plutella xylostella (setting [2]) was not below 80% in each case.

Regarding `O=C([N-][n+]1cnn(CC(F)(F)F)c1)c1cc(Cl)nc(Oc2ccc(OC(F)(F)C(F)(F)F)cc2)c1` [Compound 17], the mortality at 125 ppm in the data set with Spodoptera litura (setting [1]) and in the data set with Plutella xylostella (setting [2]) was not below 80% each time.

For the compound `O=C([N-][n+]1cnn(CC(F)F)c1)c1cc(Cl)nc(Oc2ccc(OC(F)(F)C(F)(F)F)cc2)c1` [Compound 18], the mortality at 125 ppm in the data set on Spodoptera litura (setting [1]) and with Plutella xylostella (setting [2]) was not below 80% throughout.

Regarding `CC(C)n1c[n+]([N-]C(=O)c2cc(Cl)nc(Oc3ccc(OC(F)(F)C(F)(F)F)cc3)c2)cn1` [Compound 19], the mortality at 125 ppm in the data set on Spodoptera litura (setting [1]), with Plutella xylostella (setting [2]) and in the data set on Phyllotreta striolata (setting [3]) was not below 80% each time.

In the case of `O=C([N-][n+]1ccccc1)c1cc(Cl)nc(Oc2ccc(OC(F)(F)C(F)OC(F)(F)C(F)(F)C(F)(F)F)cc2)c1` (stereo not drawn) [Compound 20], the mortality at 125 ppm in the data set with Spodoptera litura, in the data set on Plutella xylostella (Plutella xylostella) and in the data set with Phyllotreta striolata was not below 80% in each case.

For `CCn1c[n+]([N-]C(=O)c2cc(Cl)nc(Oc3ccc(OC(F)(F)C(F)OC(F)(F)C(F)(F)C(F)(F)F)cc3)c2)cn1` (stereo not drawn) [Compound 21], the mortality at 125 ppm in the data set with Spodoptera litura, with Plutella xylostella (Plutella xylostella) and with Phyllotreta striolata was not below 80% in each case.

Consider `O=C([N-][n+]1ccccc1)c1cc(Cl)nc(Oc2ccc(OC(F)(F)C(F)OC(F)(F)C(F)(F)C(F)(F)OC(F)(F)F)cc2)c1` (stereo not drawn) [Compound 22], for which the mortality at 125 ppm in the data set with Spodoptera litura, with Plutella xylostella (Plutella xylostella) and in the data set with Phyllotreta striolata was not below 80% each time.

Regarding `CCn1c[n+]([N-]C(=O)c2cc(Cl)nc(Oc3ccc(OC(F)(F)C(F)OC(F)(F)C(F)(F)C(F)(F)OC(F)(F)F)cc3)c2)cn1` (stereo not drawn) [Compound 23], the mortality at 125 ppm with Spodoptera litura, in the data set with Plutella xylostella (Plutella xylostella) and with Phyllotreta striolata was not below 80% each time.

In the case of `O=C([N-][n+]1ccccc1)c1cc(Cl)nc(Oc2ccc(SC(F)(F)F)cc2)c1` [Compound 25, (2-chloro-6-(4-((trifluoromethyl)thio)phenoxy)isonicotinoyl) (pyridin-1-ium-1-yl)amide], the mortality at 125 ppm in the data set on Spodoptera litura (setting [1]), in the data set on Plutella xylostella (setting [2]) and with Phyllotreta striolata (setting [3]) was not below 80% throughout.

For the compound `CCn1c[n+]([N-]C(=O)c2cc(Cl)nc(Oc3ccc(OC(F)(F)F)cc3)c2)cn1` [Compound 165, (2-chloro-6-(4-(trifluoromethoxy)phenoxy)isonicotinoyl)(1-ethyl-1H-1,2,4-triazol-4-ium-4-yl)amide], the mortality at 125 ppm in the data set on Spodoptera litura (setting [1]) and in the data set on Plutella xylostella (setting [2]) was not below 80% throughout. Also, the “mortality of Mythimna separata or feed intake relative to the feed intake at the solvent control area” value in the data set on Mythimna separata is listed as 100% mortality of Mythimna separata or 10% or less of the feed intake.

As to `O=C([N-][n+]1ccccc1)c1cc(Oc2ccc(OC(F)(F)F)cc2)nc(-c2ccc(F)cc2)c1` [Compound 207], the mortality at 125 ppm in the data set with Spodoptera litura (setting [1]) and with Plutella xylostella (setting [2]) was not below 80% each time. The “mortality of Mythimna separata or feed intake relative to the feed intake at the solvent control area” value in the data set on Mythimna separata is recorded as 100% mortality of Mythimna separata or 10% or less of the feed intake.

Regarding `O=C([N-][n+]1ccccc1)c1cc(Oc2ccc(OC(F)(F)F)cc2)nc(Oc2ccc(OC(F)(F)F)cc2)c1` [Compound 208], the mortality at 125 ppm in the data set with Spodoptera litura (setting [1]) and with Plutella xylostella (setting [2]) was not below 80% each time.

Take `N#Cc1ccc(Oc2cc(C(=O)[N-][n+]3ccccc3)cc(Cl)n2)cc1` [Compound 209]: the “mortality of Mythimna separata or feed intake relative to the feed intake at the solvent control area” value in the data set on Mythimna separata is on record as 100% mortality of Mythimna separata or 10% or less of the feed intake.

Turning to `CCn1c[n+]([N-]C(=O)c2cc(Cl)nc(Oc3ccc(C4CC4(Cl)Cl)cc3)c2)cn1` (stereo not drawn) [Compound 210], the “mortality of Mythimna separata or feed intake relative to the feed intake at the solvent control area” value with Mythimna separata is 100% mortality of Mythimna separata or 10% or less of the feed intake.

Consider `CCn1c[n+]([N-]C(=O)c2cc(Cl)nc(Oc3ccc(C4CC4(F)F)cc3)c2)cn1` (stereo not drawn) [Compound 212], for which the “mortality of Mythimna separata or feed intake relative to the feed intake at the solvent control area” value in the data set on Mythimna separata is 100% mortality of Mythimna separata or 10% or less of the feed intake.

In the case of `O=C([N-][n+]1ccccc1)c1cc(Cl)nc(Oc2ccc(C3CC3(F)F)cc2)c1` (stereo not drawn) [Compound 213], the “mortality of Mythimna separata or feed intake relative to the feed intake at the solvent control area” value in the data set with Mythimna separata is on record as 100% mortality of Mythimna separata or 10% or less of the feed intake.

Turning to `O=C([N-][n+]1ccccc1)c1cc(Oc2ccc(OC(F)(F)C(F)(F)F)cc2)nc(C2CC2)c1` [Compound 215, (2-cyclopropyl-6-(4-(perfluoroethoxy)phenoxy)isonicotinoyl)(pyridin-1-ium-1-yl)amide], the mortality at 125 ppm in the data set with Spodoptera litura (setting [1]) and with Plutella xylostella (setting [2]) was not below 80% each time. For the same compound, the “mortality of Mythimna separata or feed intake relative to the feed intake at the solvent control area” value in the data set with Mythimna separata is 100% mortality of Mythimna separata or 10% or less of the feed intake.

As to `CCn1c[n+]([N-]C(=O)c2cc(Cl)nc(Oc3ccc4nc(C(F)(F)F)ccc4c3)c2)cn1` [Compound 216], the “mortality of Mythimna separata or feed intake relative to the feed intake at the solvent control area” value in the data set on Mythimna separata is 100% mortality of Mythimna separata or 10% or less of the feed intake.

With `O=C([N-][n+]1ccccc1)c1cc(Cl)nc(Oc2cnn(C=C(F)C(F)(F)F)c2)c1` [Compound 217], in the data set with Spodoptera litura (setting [1]), the mortality at 125 ppm is not below 80%.

Turning to `COC(=O)c1cc(C(=O)[N-][n+]2ccccc2)cc(Oc2ccc(OC(F)(F)C(F)(F)F)cc2)n1` [Compound 220], the mortality at 125 ppm with Plutella xylostella (setting [2]) is not below 80%.

Consider `O=C([N-][n+]1ccccc1)c1cc(Oc2ccc(SC(F)(F)C(F)F)cc2)nc(-n2cccn2)c1` [Compound 221], for which the mortality at 125 ppm with Spodoptera litura (setting [1]) and in the data set with Plutella xylostella (setting [2]) was not below 80% each time.

(Values after patent EP4574818A1, “ONIUM SALT OF NITROGEN-CONTAINING HETEROARYL COMPOUND AND PEST CONTROL AGENT” (priority 2022, dated 2024).)
